Assay results: patent publication US9796720B2, “Imidazole-derived modulators of the glucocorticoid receptor” (BRISTOL-MYERS SQUIBB COMPANY, priority 2013, dated 2017)
Read-outs that look alike come from different tables or passages of the source.

Key:
AP-1 = experiment: Cellular transrepressional assay (AP-1 luciferase reporter in A549 cells, PMA-activated); assay type: cell-based; details: for EC50: read-out: AP-1 (EC50, nM) (measured in cellular transrepression assay); for Emax: read-out: AP-1 Max % inhibition (measured in cellular transrepression assay)
Description: Cellular Transrepressional Assay
To measure the ability of test molecules to inhibit AP-1 induced transcriptional activity we utilized an A549 cell which was stably transfected with a plasmid containing 7×AP-1 DNA binding sites (pAP-1-Luc plasmid, Stratagene Co. La Jolla, Calif.) followed by the gene for luciferase. Cells were activated with 10 ng/ml of phorbol myristic acid (PMA) plus or minus test molecules for 7 hours. After 7 hours a luciferase reagent was added to measure luciferase enzymatic activity in the cell. After a 10 minute incubation of luciferase reagent with cells, luminescence was measured in a TOPCOUNT® luminescence counter. Repression of AP-1 activity was calculated as the percentage decrease in the signal induced by PMA alone. Test molecules were analyzed in the concentration range from 0.1 nM to 40 μM. EC50s were determined by using standard curve fitting methods such as Excel fit (Microsoft Co.). An EC50 is the test molecule concentration at which there is a 50% repression of the maximal inhibition of transcription, i.e., a 50% reduction of AP-1 activity.

[1] = biological target: human full-length glucocorticoid receptor (Homo sapiens (Human), UniProt P04150); experiment: Glucocorticoid Receptor Binding Assay (II), fluorescence polarization competitor assay; details: recombinant human full-length GR cell lysate, Fluormone GS1; read-out: GR (Ki, nM) (measured in GR binding Assay II)
human full-length glucocorticoid receptor, sequence (P04150 whole entry): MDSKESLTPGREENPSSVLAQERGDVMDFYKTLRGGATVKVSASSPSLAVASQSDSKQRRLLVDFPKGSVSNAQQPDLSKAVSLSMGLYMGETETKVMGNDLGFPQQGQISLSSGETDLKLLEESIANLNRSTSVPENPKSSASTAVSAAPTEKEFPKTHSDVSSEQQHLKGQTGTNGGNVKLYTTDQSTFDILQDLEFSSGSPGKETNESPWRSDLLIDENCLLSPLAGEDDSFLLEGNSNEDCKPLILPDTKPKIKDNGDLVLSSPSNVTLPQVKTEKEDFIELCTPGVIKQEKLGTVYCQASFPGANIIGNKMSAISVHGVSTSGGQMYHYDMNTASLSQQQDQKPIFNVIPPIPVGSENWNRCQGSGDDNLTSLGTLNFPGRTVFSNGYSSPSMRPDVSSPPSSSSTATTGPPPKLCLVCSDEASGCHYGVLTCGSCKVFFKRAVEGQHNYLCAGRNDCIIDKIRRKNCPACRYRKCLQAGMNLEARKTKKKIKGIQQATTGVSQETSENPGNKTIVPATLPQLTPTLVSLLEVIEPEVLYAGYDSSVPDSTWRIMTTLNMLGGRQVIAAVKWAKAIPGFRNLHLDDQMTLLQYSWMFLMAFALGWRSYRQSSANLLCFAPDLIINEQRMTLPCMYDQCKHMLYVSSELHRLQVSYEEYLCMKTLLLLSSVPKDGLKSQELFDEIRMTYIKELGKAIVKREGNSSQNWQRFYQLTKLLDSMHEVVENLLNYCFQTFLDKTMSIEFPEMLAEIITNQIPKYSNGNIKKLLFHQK
Description: Glucocorticoid Receptor Binding Assay (II)
In order to measure the binding of compounds on the glucocorticoid receptor a commercially available kit was used (Glucocorticoid receptor competitor assay kit, PanVera Co., Madison, Wis., P2816). Briefly, a cell lysate containing recombinantly expressed human full-length glucocorticoid receptor was mixed with a fluorescently labeled glucocorticoid (1 nM Fluormone GS1) in the presence or absence of test compound. After one hour at room temperature, the fluorescence polarization (FP) of the samples were measured.

[2] = A549 cells, 7xAP-1 luciferase, PMA 10 ng/ml, 7 hours

Row | Structure (SMILES) | EC50 (AP-1; [2]) | Ki [1] | Emax (AP-1; [2]) | EC50 (AP-1; 7 h) | Emax (AP-1; 7 h)
1 | CC(C)(c1nc2nccnc2[nH]1)[C@@H]1c2ccc(-c3ccc(S(C)(=O)=O)cc3)nc2Oc2c(F)cccc21 [Example 5, (S)-5-(2-(1H-Imidazo[4,5-b]pyrazin-2-yl)propan-2-yl)-9-fluoro-2-(4-(methylsulfonyl)phenyl)-5H-chromeno[2,3-b]pyridine] | – | 2.89 nM | – | 29.5 nM | 55.8%
2 | CC(C)(c1nc2nccnc2[nH]1)[C@@H]1c2ccc(-c3ccc(F)nc3)nc2Oc2c(F)cccc21 [Example 28, (S)-5-(2-(1H-Imidazo[4,5-b]pyrazin-2-yl)propan-2-yl)-9-fluoro-2-(6-fluoropyridin-3-yl)-5H-chromeno[2,3-b]pyridine] | 5000 nM | 28.6 nM | 16.4% | – | –
3 | CC(C)(c1nc2ccccc2[nH]1)[C@@H]1c2ccc(-c3ccc(C(=O)N4CCOCC4)cc3)nc2Oc2c(F)cccc21 [Example 14, (S)-(4-(5-(2-(1H-Benzo[d]imidazol-2-yl)propan-2-yl)-9-fluoro-5H-chromeno[2,3-b]pyridin-2-yl)phenyl)(morpholino)methanone] | 284 nM | 16.1 nM | 31.6% | – | –
4 | CC(C)(c1nc2nccnc2[nH]1)[C@@H]1c2ccc(-c3ccc(NS(C)(=O)=O)cc3)nc2Oc2c(F)cccc21 [Example 23, (S)-N-(4-(5-(2-(1H-Imidazo[4,5-b]pyrazin-2-yl)propan-2-yl)-9-fluoro-5H-chromeno[2,3-b]pyridin-2-yl)phenyl)methanesulfonamide] | – | 1.76 nM | – | 22.8 nM | 58.2%
5 | CC(C)(c1nc2cncnc2[nH]1)[C@@H]1c2ccc(-c3ccc(S(C)(=O)=O)cc3)nc2Oc2c(F)cccc21 [Example 17, (S)-5-(2-(9H-Purin-8-yl)propan-2-yl)-9-fluoro-2-(4-(methylsulfonyl)phenyl)-5H-chromeno[2,3-b]pyridine] | 2500 nM | 65.8 nM | 27.3% | – | –

Further molecules by falling EC50 (AP-1; [2]), results first:

Row | EC50 (AP-1; [2]) | Ki [1] | Structure (SMILES) | Emax (AP-1; [2]) | EC50 (AP-1; 7 h) | Emax (AP-1; 7 h)
6 | 31.7 nM | 2.78 nM | CC(C)Oc1ccc(-c2ccc3c(n2)Oc2c(F)cccc2[C@@H]3C(C)(C)c2nc3nccnc3[nH]2)cn1 [Example 25, (S)-5-(2-(1H-Imidazo[4,5-b]pyrazin-2-yl)propan-2-yl)-9-fluoro-2-(6-isopropoxypyridin-3-yl)-5H-chromeno[2,3-b]pyridine] | 57.8% | – | –
7 | 21.1 nM | 3.92 nM | CC(C)(c1nc2nccnc2[nH]1)[C@@H]1c2ccc(-c3ccncc3)nc2Oc2c(F)cccc21 [Example 21, (S)-5-(2-(1H-Imidazo[4,5-b]pyrazin-2-yl)propan-2-yl)-9-fluoro-2-(pyridin-4-yl)-5H-chromeno[2,3-b]pyridine] | 45.9% | – | –
8 | 9.82 nM | 0.76 nM | CC(C)Oc1ccc(-c2ccc3c(n2)Oc2c(F)cccc2[C@@H]3C(C)(C)c2nc3nccnc3[nH]2)cc1 [Example 8, (S)-5-(2-(1H-Imidazo[4,5-b]pyrazin-2-yl)propan-2-yl)-9-fluoro-2-(4-isopropoxyphenyl)-5H-chromeno[2,3-b]pyridine] | 69.8% | – | –
